The values that follow come from ChEMBL document CHEMBL1201862, “PubChem BioAssay data set” (2004).

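Assay format: 96-well plates, 48-hour exposure. Abbreviation: GI50, concentration required for 50% inhibition of growth.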 Activity calls are given as the source filed them. No stated cut-off is given here; in the data, active = GI50 up to about 1.1 µM and inactive = higher.

Some test systems named below: DLD-1; RXF 631; M19-MEL; DMS-114; SNB-78; LXFL 529; HOP-18; XF498; T47D.
Common to all, as to experiment: NCI anticancer screen, dose series, 48 h

Consider `O=C1OC(=O)c2c1nc1ccccc1c2-c1ccccc1`, for which the GI50 with DLD-1, in the test with RXF 631, in the test on M19-MEL, in the test on DMS-114, with SNB-78 and in the test on LXFL 529 was > 100 µM (inactive) throughout. The GI50 in the test with HOP-18 was > 100 µM (inactive).

In the case of `O=C1/C(=C/c2ccc(O)cc2)CCC1CNc1ccc(Cl)cc1` (stereo unspecified), the GI50 with DLD-1 was 0.912 µM (active); in the test on XF498 it was 2.7 µM (inactive); in the test with RXF 631 it was 8.89 µM (inactive); with M19-MEL, 1.79 µM (inactive); in the test with DMS-114, 1.31 µM (inactive); in the test on SNB-78, 12.5 µM (inactive). Also, the GI50 was 0.357 µM (active) in the test on LXFL 529 and 6.08 µM (inactive) in the test with HOP-18.

Consider `C/C(=N\NC(=S)N1CCN(c2ccccn2)CC1)c1nccs1`, for which the GI50 was 13 µM (inactive) in the test on XF498; 1.05 µM (active) with RXF 631; 0.574 µM (active) in the test with M19-MEL; 0.0391 µM (active) with T47D; 0.01 µM (active) with DMS-114; 6.76 µM (inactive) in the test on SNB-78. Also, the figures for the GI50 in the test with LXFL 529 and in the test with HOP-18 were 0.01 µM (active) and 2.92 µM (inactive), respectively.

On to `Cc1cc(Br)cc(C)c1NC(=O)C(=O)CC(=O)c1sc(-n2nc(-c3ccccc3)cc2-c2ccccc2)nc1C`, for which the GI50 in the test on DLD-1, with RXF 631, in the test with M19-MEL, in the test on DMS-114, with SNB-78 and with LXFL 529 was > 100 µM (inactive) in each case. Moreover, the GI50 in the test on HOP-18 was > 100 µM (inactive).

As for `CS(=O)(=O)OC1CCC2(C#N)CCC1C2=O` (stereo unspecified), the GI50 in the test with DLD-1, with XF498, with RXF 631, with M19-MEL, in the test with SNB-78 and in the test with LXFL 529 was > 100 µM (inactive) each time. For the same compound, in the test on HOP-18, the GI50 was > 100 µM (inactive).

As for `Cc1cccc(NC(=O)C(=O)C(C2OC(=O)c3ccccc32)[N+](=O)[O-])c1C` (stereo unspecified), the GI50 in the test on DLD-1 is 6.43 µM (inactive); with XF498, 6.81 µM (inactive); with RXF 631, 5.98 µM (inactive); with M19-MEL it was 1.87 µM (inactive); in the test on DMS-114, 2.86 µM (inactive); in the test with SNB-78 it was 17.5 µM (inactive). In addition, the results for the GI50 with LXFL 529 and in the test on HOP-18 were 8.04 µM (inactive) and 10.5 µM (inactive), respectively.

For the compound `CC(=O)Nc1ccc(/C=c2\sc3nnc(/C=C/c4ccccc4)n3c2=O)cc1`, the GI50 with DLD-1, in the test on XF498, with RXF 631, with M19-MEL, with DMS-114 and in the test on SNB-78 was > 50 µM (inactive) each time. Moreover, the values for the GI50 in the test on LXFL 529 and with HOP-18 were > 50 µM (inactive) and 17.1 µM (inactive), respectively.

In the case of `CN(C)c1ncnc2c1Cc1ccccc1C(=O)N2C`, the GI50 with DLD-1, in the test with XF498, in the test with RXF 631, in the test with M19-MEL, in the test with DMS-114 and in the test on SNB-78 was > 100 µM (inactive) in each case. In addition, the GI50 in the test on LXFL 529 and with HOP-18 was > 100 µM (inactive) each time.

As for `Cc1ccc(/C=C/C(=O)c2ccc(Cl)c(Cl)c2)cc1`, the GI50 with DLD-1 is > 100 µM (inactive); with XF498, > 100 µM (inactive); in the test on RXF 631, > 100 µM (inactive); with SNB-78 it was > 100 µM (inactive); in the test on LXFL 529, > 100 µM (inactive); in the test on HOP-18 it was 63.1 µM (inactive).

Consider `COc1ccc(C(=O)C(c2ccc(OC)cc2)C2(O)C(=O)Nc3ccccc32)cc1` (stereo unspecified), for which the GI50 with DLD-1, in the test on XF498, with RXF 631, in the test on M19-MEL, with SNB-78 and in the test with LXFL 529 was > 100 µM (inactive) in each case.

For `NC(=O)NCc1c(C(N)=O)ncn1Cc1ccccc1`, the GI50 with DLD-1, in the test with XF498, in the test with M19-MEL, in the test with DMS-114, with SNB-78 and with LXFL 529 was > 100 µM (inactive) in each case. The GI50 with HOP-18 was > 100 µM (inactive).

Turning to `Cn1c(=O)c(C(c2ccccc2)c2c(O)c3ccccc3n(C)c2=O)c(O)c2ccccc21`, the GI50 was 88.7 µM (inactive) in the test with DLD-1; > 100 µM (inactive) in the test with XF498; > 100 µM (inactive) in the test with RXF 631; > 100 µM (inactive) in the test on M19-MEL; > 100 µM (inactive) in the test on DMS-114; > 100 µM (inactive) in the test on SNB-78. Moreover, the GI50 with LXFL 529 and in the test on HOP-18 was > 100 µM (inactive) throughout.

For `CC(C)CCCC(C)[C@H]1CCC2[C@H]3C(CC[C@@]21C)[C@@]1(C)CCC=C[C@]12C[C@@H]2[C@@H]3O` (stereo partly specified), the GI50 in the test on DLD-1, in the test with RXF 631, in the test on DMS-114, with SNB-78, in the test with LXFL 529 and in the test with HOP-18 was > 100 µM (inactive) throughout.

With `C=C1CC[C@@H]2C(C)(C)C(O)CCC2(C)C1COc1ccc2ccc(=O)oc2c1` (stereo partly specified), the GI50 in the test on DLD-1 is 15.7 µM (inactive); in the test with XF498 it was 16 µM (inactive); in the test with M19-MEL it was 18.4 µM (inactive); in the test on DMS-114, 15 µM (inactive); in the test on SNB-78, 19.4 µM (inactive); with LXFL 529, 11.2 µM (inactive). In the test with HOP-18, the GI50 was 19.6 µM (inactive).

For the compound `Cc1cccc2cc3cccc(C(=O)NCCN(C)C)c3nc12`, the GI50 is 0.119 µM (active) with DLD-1; 0.0538 µM (active) with RXF 631; 0.157 µM (active) in the test with M19-MEL; 0.115 µM (active) in the test on DMS-114; 0.614 µM (active) in the test on SNB-78; 0.275 µM (active) in the test on LXFL 529. The GI50 with HOP-18 is 0.399 µM (active).

Consider `COc1ccc(NCc2cc(OC)cc(OC)c2)cc1`, for which the GI50 is 32.6 µM (inactive) in the test on DLD-1; 4.3 µM (inactive) in the test with XF498; 10.5 µM (inactive) with RXF 631; 15.1 µM (inactive) with M19-MEL; 6.53 µM (inactive) in the test with DMS-114; 19.6 µM (inactive) in the test on SNB-78. Further, the GI50 in the test on LXFL 529 is 26.2 µM (inactive); with HOP-18, > 42.7 µM (inactive).
